Measured values published in US5641802A, “Tachyquinine antagonists, their preparation and use in pharmaceutical formulations” (A. Menarini Industrie Farmaceutiche Reiunite S.r.l., priority 1992, dated 1997).

Target: T1, NK1 receptor (Homo sapiens, UniProt P25103)
T1 construct: endogenous in cells; host or cells: IM9 cells (intact)
Assay: [3H] SP binding assay in IM9 Cell Line (Substance P antagonism)
Settings: intact IM9 cells, 60 min, room temperature, compound at 1 μM
Method: Assessment of biological activity (NK1 antagonism) of compounds of this invention was performed by means of the following binding and functional assays:
[3H] SP binding assay in IM9 Cell Line
Binding assay was performed with intact cells as described by Payan et al. (J. Immunology 133, 3260 (1984)). Cells were washed with buffer A, (pH 7.5), containing (in mM) Tris-HCl 50, and NaCl 150, plus 0.02% BSA, and then resuspended in assay buffer (buffer A supplemented with protease inhibitors) at a concentration of 1×10^7 cells/ml. Cells were incubated with [3H]SP in a final volume of 0.5 ml for 60 min. at room temperature. Nonspecific binding was determined in the presence of […] nonradioactive SP. The assay mixture was set up in microfuge tubes that had been presoaked in a 0.5% BSA solution for at least 3 hours. Bound and free [^3 H]SP were separated by pelleting the cells in a microfuge (6 min.; 12000 g); the supernatant was then removed by aspiration. For competition binding experiments, IM9 cells were incubated in triplicate with […] [^3 H]SP (the approximate Kd value, as determined in saturation binding experiments); competing ligands were typically added in six concentrations (1:10 dilutions in assay buffer) to give full competition curves.

T1 sequence (P25103 whole entry): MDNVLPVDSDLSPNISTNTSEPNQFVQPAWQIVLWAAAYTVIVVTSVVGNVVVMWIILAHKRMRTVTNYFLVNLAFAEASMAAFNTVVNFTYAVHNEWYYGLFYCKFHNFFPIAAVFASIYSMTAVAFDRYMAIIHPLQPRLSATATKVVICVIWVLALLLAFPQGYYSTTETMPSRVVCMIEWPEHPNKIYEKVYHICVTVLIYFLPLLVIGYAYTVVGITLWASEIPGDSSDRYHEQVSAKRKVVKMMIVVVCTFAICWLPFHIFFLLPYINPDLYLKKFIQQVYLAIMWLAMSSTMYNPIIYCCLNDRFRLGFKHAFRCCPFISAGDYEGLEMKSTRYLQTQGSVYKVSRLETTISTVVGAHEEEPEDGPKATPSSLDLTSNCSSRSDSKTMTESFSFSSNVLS

Row | inhibition at 1 µM [%] | % of binding inhibition at 1 μM (1 µM) [%] | Compound
1 | 95 | – | CN(Cc1ccccc1)C(=O)[C@H](Cc1ccc2ccccc2c1)NC(=O)C1C2CCC(C2)C1NC(=O)c1c[nH]c2ccccc12 (stereo partly drawn) [Example 10 fast, N^α [N-(1H-indol-3-yl-carbonyl)-3S-endoaminobicyclo(2,2,1)heptyl-2R endocarbonyl]-L-3-(2-naphthyl)alanyl-N-methyl-N-benzylamide and N^α [N-(1H-indol-3-yl-carbonyl)-3R-endoaminobicyclo(2,2,1)heptyl-2S-endocarbonyl]-L-3-(2-naphthyl)alanyl-N-methyl-N-benzylamide]
2 | 100 | – | CN(Cc1ccccc1)C(=O)[C@H](Cc1ccc2ccccc2c1)NC(=O)C1CCCCC1NC(=O)c1c[nH]c2ccccc12 (stereo partly drawn) [Example 3 fast, N^α [N-(1H-indol-3-yl-carbonyl)-(R,S)cis-2-aminocyclohexyl-carbonyl]-L-3(2-naphthyl)alanyl-N-methyl-N-benzylamide and N^α [N-(1H-indol-3-yl-carbonyl)-(S,R)cis-2-aminocyclohexyl-carbonyl]-L-3(2-naphthyl)alanyl-N-methyl-N-benzylamide]

More lines, now with the values behind:

Row | Compound | inhibition at 1 µM [%] | % of binding inhibition at 1 μM (1 µM) [%]
3 | CN(Cc1ccccc1)C(=O)[C@H](Cc1ccccc1)NC(=O)C1CCCCC1NC(=O)c1c[nH]c2ccccc12 (stereo partly drawn) [Example 1 fast, N-methyl-N-benzylamide of N^α -{[N(indol-3-yl-carbonyl)(R,R)-trans-2-amino]cyclohexanoyl}-L-phenylalanine and N-methyl-N-benzylamide of N^α -{[N(indol-3-yl-carbonyl)(S,S)-trans-2-amino]cyclohexanoyl}-L-phenylalamine, reference compound] | 96 | –
4 | CN(Cc1ccccc1)C(=O)[C@H](Cc1ccccc1)NC(=O)C1CCCCC1NC(=O)c1c[nH]c2ccccc12 (stereo partly drawn) [Example 2 fast, N-methyl-N-benzylamide of N^α -{[N(indol-3-yl-carbonyl)(R,S)-cis-2-amino]cyclohexanoyl}-L-phenylalanine and N-methyl-N-benzylamide of N^α -{[N(indol-3-yl-carbonyl)(S,R)-cis-2-amino]cyclohexanoyl}-L-phenylalanine] | – | 100
5 | CN(Cc1ccccc1)C(=O)[C@@H](Cc1ccc2ccccc2c1)NC(=O)C1CCCCC1NC(=O)c1ccccc1 (stereo partly drawn) [Example 17 fast, N^α [N-(benzoyl)-(R,S)cis-2-aminocyclohexyl-carbonyl]-D-3-(2-naphthyl)alanyl-N-methyl-N-benzylamide and N^α [N-(benzoyl)-(S,R)cis-2-aminocyclohexyl-carbonyl]-D-3-(2-naphthyl)alanyl-N-methyl-N-benzylamide] | 98 | –
